Data published in US20050282743A1, “Molecular interactions in cells” (Arbor Vita Corporation, priority 2001, published 2005).
Ends that are not written are not given here. Peptide text beside a SMILES is read from it. * marks the point of attachment. Biotin = O=C1N[C@H]2[C@H](CS[C@H]2CCCCC(=O)*)N1

Tests used:
Type in all cases: binding
[1] = target: T1, KIAA0807(S) (PDZ Domain 1) (Homo sapiens, UniProt Q6P0Q8); assay: G' assay and Kd titration, TABLE 12; conditions: for Classification: A450 nm class of biotinylated PL peptide bound, 0 in conc columns = peptide 10 uM, protein 5 ug/ml
T1 construct: made in house; host or cells: E. coli (DH5alpha, BL21 or JM109)
T1 sequence (Q6P0Q8 with tags, fused parts or gaps): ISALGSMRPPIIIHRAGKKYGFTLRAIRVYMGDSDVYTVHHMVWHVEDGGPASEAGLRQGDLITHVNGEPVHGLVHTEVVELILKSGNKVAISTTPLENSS

[2] = target: T2, PDZ protein (GST-PDZ fusion) (Homo sapiens, UniProt Q13424); assay: G' assay (10 uM PL peptide), results of TABLE 7 and TABLE 12; conditions: PDZ Synt. 1 alpha, PDZ Domain 1
T2 construct: made in house; host or cells: E. coli (DH5alpha, BL21 or JM109)
T2 sequence (Q13424 1-505): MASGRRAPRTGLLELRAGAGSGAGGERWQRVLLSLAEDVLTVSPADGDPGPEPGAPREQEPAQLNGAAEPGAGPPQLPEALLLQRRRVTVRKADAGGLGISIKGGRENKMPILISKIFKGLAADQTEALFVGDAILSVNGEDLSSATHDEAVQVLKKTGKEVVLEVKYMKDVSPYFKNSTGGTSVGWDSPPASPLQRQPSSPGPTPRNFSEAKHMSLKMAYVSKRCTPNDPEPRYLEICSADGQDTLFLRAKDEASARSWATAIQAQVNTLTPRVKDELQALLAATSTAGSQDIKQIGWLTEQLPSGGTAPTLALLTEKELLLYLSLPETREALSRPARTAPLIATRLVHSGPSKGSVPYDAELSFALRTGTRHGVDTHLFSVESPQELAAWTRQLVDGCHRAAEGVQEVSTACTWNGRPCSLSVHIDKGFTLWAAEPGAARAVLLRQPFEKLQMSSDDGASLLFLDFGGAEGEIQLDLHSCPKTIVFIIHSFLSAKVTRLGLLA
How it was run: (§1)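 Binding classes derive from A450 nm of bound biotin-tagged PL peptide. A score of 5 needs A450 above 4 in more than two repeats.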

[3] = target: T3, PDZ protein (GST-PDZ fusion) (Homo sapiens, UniProt Q14CM0); assay: as above; conditions: PDZ KIAA0316, PDZ Domain 1
T3 construct: made in house; host or cells: E. coli (DH5alpha, BL21 or JM109)
T3 sequence (Q14CM0 1-1322): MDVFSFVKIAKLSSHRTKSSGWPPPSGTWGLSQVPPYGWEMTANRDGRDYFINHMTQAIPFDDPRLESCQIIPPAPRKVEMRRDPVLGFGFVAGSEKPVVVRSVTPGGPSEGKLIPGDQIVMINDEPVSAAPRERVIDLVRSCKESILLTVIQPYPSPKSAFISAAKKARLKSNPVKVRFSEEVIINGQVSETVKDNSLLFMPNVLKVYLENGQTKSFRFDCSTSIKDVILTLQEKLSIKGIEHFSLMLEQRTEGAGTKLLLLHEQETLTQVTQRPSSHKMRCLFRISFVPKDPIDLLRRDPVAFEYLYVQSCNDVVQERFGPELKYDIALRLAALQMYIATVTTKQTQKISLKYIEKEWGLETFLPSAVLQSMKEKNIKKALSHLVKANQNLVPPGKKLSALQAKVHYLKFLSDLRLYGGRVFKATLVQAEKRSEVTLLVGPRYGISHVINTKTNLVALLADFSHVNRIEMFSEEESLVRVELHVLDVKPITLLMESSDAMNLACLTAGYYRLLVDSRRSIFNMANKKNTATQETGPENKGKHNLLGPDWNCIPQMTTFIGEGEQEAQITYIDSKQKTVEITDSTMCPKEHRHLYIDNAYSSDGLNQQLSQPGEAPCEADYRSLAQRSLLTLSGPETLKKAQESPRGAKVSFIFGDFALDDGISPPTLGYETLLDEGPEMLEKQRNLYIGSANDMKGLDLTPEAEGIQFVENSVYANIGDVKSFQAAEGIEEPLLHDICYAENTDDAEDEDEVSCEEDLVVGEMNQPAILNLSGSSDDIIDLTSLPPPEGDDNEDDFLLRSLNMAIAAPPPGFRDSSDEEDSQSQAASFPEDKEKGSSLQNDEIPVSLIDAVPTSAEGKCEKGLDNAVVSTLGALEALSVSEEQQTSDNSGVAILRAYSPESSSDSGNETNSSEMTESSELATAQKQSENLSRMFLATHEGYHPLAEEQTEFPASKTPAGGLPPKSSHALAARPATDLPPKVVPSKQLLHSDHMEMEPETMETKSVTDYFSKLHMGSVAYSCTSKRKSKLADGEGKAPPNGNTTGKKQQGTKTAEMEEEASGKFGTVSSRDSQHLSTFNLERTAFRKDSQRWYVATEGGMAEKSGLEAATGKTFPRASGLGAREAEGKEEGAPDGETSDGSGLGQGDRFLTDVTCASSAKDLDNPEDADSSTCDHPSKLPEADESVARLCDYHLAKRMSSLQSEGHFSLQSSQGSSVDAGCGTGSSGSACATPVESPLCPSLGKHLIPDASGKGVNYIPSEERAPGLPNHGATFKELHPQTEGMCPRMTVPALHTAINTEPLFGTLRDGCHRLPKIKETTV
How it was run: as §1

| Classification [1] | Classification [3] | Kd ([1]; titration of PL peptide, KIAA0807(S) protein 0.5 ug/ml, read-out: Peptide Optimal Conc (Kd)) | Compound | Classification [2] |
| --- | --- | --- | --- | --- |
| 1 (A450 nm 0-1) | – | – | ARHRVTSYTSSSVNVSSNL (Biotin-ARHRVTSYTSSSVNVSSNL) [IL-8RB] | 1 (A450 nm 0-1) |
| – | 2 (A450 nm 1-2) | – | KTMPAATYRLLTGQEQPVYL (Biotin-KTMPAATYRLLTGQEQPVYL) [MINT-3] | – |
| – | 1 (A450 nm 0-1) | – | CC(C)C[C@H](NC(=O)[C@H](CC(C)C)NC(=O)[C@@H](NC(=O)[C@H](CC(=O)O)NC(=O)CCCC[C@@H]1SC[C@@H]2NC(=O)N[C@@H]21)[C@@H](C)O)C(=O)N[C@@H](CC(C)C)C(=O)N[C@H](C(=O)N[C@@H](CCC(=O)O)C(=O)N[C@@H](CC(N)=O)C(=O)N[C@@H](CCC(=O)O)C(=O)NCC(=O)N[C@@H](CC(=O)O)C(=O)N[C@@H](CCCCN)C(=O)N[C@H](C(=O)N[C@@H](CCC(=O)O)C(=O)N[C@@H](CCC(=O)O)C(=O)N[C@@H](CCC(N)=O)C(=O)N[C@H](C(=O)N[C@@H](CO)C(=O)N[C@@H](Cc1ccc(O)cc1)C(=O)N[C@H](C(=O)O)C(C)C)C(C)C)[C@@H](C)O)[C@@H](C)O [5H2B_HUMAN] (Biotin-DTLLLTENEGDKTEEQVSYV-OH; C-terminus assumed) | – |
| 5 (A450 nm of 4 more than 2× repeated) | 1 (A450 nm 0-1) | 350 nM | CC[C@H](C)[C@H](NC(=O)[C@H](CO)NC(=O)[C@H](CCC(=O)O)NC(=O)[C@H](Cc1ccc(O)cc1)NC(=O)[C@H](CC(=O)O)NC(=O)[C@H](CC(N)=O)NC(=O)[C@H](CCC(=O)O)NC(=O)[C@H](CCCCN)NC(=O)CCCC[C@@H]1SC[C@@H]2NC(=O)N[C@@H]21)C(=O)N[C@@H](CO)C(=O)N[C@@H](CC(=O)O)C(=O)N[C@@H](CC(C)C)C(=O)N[C@@H](CCC(N)=O)C(=O)N[C@@H](CCC(N)=O)C(=O)NCC(=O)N[C@@H](CCCNC(=N)N)C(=O)N[C@@H](CC(=O)O)C(=O)N[C@H](C(=O)N[C@H](C(=O)N[C@@H](CCCNC(=N)N)C(=O)N[C@@H](CC(C)C)C(=O)O)[C@@H](C)O)[C@@H](C)CC [PAG] (Biotin-KENDYESISDLQQGRDITRL-OH; C-terminus assumed) | – |
| – | 1 (A450 nm 0-1) | – | CC(C)C[C@H](NC(=O)[C@H](CC(=O)O)NC(=O)[C@H](CO)NC(=O)[C@H](CCC(=O)O)NC(=O)CNC(=O)[C@H](Cc1ccc(O)cc1)NC(=O)[C@H](CC(C)C)NC(=O)[C@H](C)NC(=O)[C@H](CO)NC(=O)[C@H](CO)NC(=O)[C@H](Cc1ccccc1)NC(=O)[C@H](C)NC(=O)[C@H](C)NC(=O)[C@H](Cc1ccc(O)cc1)NC(=O)[C@H](CC(=O)O)NC(=O)[C@H](CC(C)C)NC(=O)[C@H](C)NC(=O)CNC(=O)[C@@H]1CCCN1C(=O)[C@@H](NC(=O)CCCC[C@@H]1SC[C@@H]2NC(=O)N[C@@H]21)C(C)C)C(=O)O [a-actinin 2] (Biotin-VPGALDYAAFSSALYGESDL-OH; C-terminus assumed) | 3 (A450 nm 2-3) |
| – | – | – | CSCC[C@H](NC(=O)[C@H](C)NC(=O)[C@H](CCCNC(=N)N)NC(=O)CNC(=O)[C@@H](NC(=O)[C@H](Cc1c[nH]c2ccccc12)NC(=O)[C@H](CCCNC(=N)N)NC(=O)CNC(=O)CCCC[C@@H]1SC[C@@H]2NC(=O)N[C@@H]21)[C@@H](C)O)C(=O)N[C@@H](CO)C(=O)N[C@@H](C)C(=O)N[C@@H](Cc1c[nH]c2ccccc12)C(=O)N[C@@H](CCCCN)C(=O)N1CCC[C@H]1C(=O)N[C@H](C(=O)N[C@@H](CCCNC(=N)N)C(=O)N[C@@H](CCCNC(=N)N)C(=O)N[C@@H](CCC(=O)O)C(=O)N[C@H](C(=O)N[C@@H](CCC(=O)O)C(=O)N[C@H](C(=O)O)C(C)C)[C@@H](C)O)[C@@H](C)O [HPV E6 #35 (modified)] (Biotin-GRWTGRAMSAWKPTRRETEV-OH; C-terminus assumed) | 5 (A450 nm of 4 more than 2× repeated) |

| Compound | Classification [1] | Classification [3] | Kd ([1]; titration of PL peptide, KIAA0807(S) protein 0.5 ug/ml, read-out: Peptide Optimal Conc (Kd)) | Classification [2] |
| --- | --- | --- | --- | --- |
| CC(C)C[C@H](NC(=O)[C@H](C)NC(=O)[C@@H](NC(=O)[C@H](CCC(=O)O)NC(=O)[C@H](CCCNC(=N)N)NC(=O)[C@H](CCCNC(=N)N)NC(=O)CNC(=O)[C@H](CCC(N)=O)NC(=O)[C@H](CC(C)C)NC(=O)[C@H](CCCNC(=N)N)NC(=O)CNC(=O)CNC(=O)[C@H](CCCNC(=N)N)NC(=O)[C@H](C)NC(=O)[C@H](CO)NC(=O)[C@H](CCCNC(=N)N)NC(=O)CNC(=O)CNC(=O)[C@H](C)NC(=O)[C@H](C)NC(=O)CCCC[C@@H]1SC[C@@H]2NC(=O)N[C@@H]21)[C@@H](C)O)C(=O)O [HPV E6 33 (modified)] (Biotin-AAGGRSARGGRLQGRRETAL-OH; C-terminus assumed) | – | 2 (A450 nm 1-2) | – | 3 (A450 nm 2-3) |
| CC(C)C[C@H](NC(=O)[C@H](C)NC(=O)[C@@H](NC(=O)[C@@H](NC(=O)[C@H](Cc1c[nH]cn1)NC(=O)[C@H](CC(C)C)NC(=O)CNC(=O)[C@H](CCC(N)=O)NC(=O)CNC(=O)CNC(=O)[C@H](C)NC(=O)[C@H](C)NC(=O)[C@H](CCCNC(=N)N)NC(=O)[C@H](C)NC(=O)[C@H](CO)NC(=O)[C@H](CC(=O)O)NC(=O)[C@H](CC(=O)O)NC(=O)[C@H](Cc1c[nH]c2ccccc12)NC(=O)[C@H](C)NC(=O)CCCC[C@@H]1SC[C@@H]2NC(=O)N[C@@H]21)C(C)C)[C@@H](C)O)C(=O)O [LPAP] (Biotin-AWDDSARAAGGQGLHVTAL-OH; C-terminus assumed) | 5 (A450 nm of 4 more than 2× repeated) | 1 (A450 nm 0-1) | – | – |
